Bridge positions count the residues as written; N and C are the ends. Ends that are not written are not given here.
Columns and labels:
[1] = system: antiserum raised against Manduca sexta AST-C; experiment: AST-C radioimmunoassay standard curves and cross-reactivity; assay type: binding; settings: competitive RIA with iodinated AST-C tracer, antiserum 1:1000; typical standard curves
Description: AST-C (300 pmol, dissolved in 10 µl 200 mmol l^−1 phosphate buffer at pH 7.5) was radio iodinated with 9.25–12.5 MBq NaI^125 in 10^−5 mol l^−1 NaOH (PerkinElmer, Boston MA), using Chloramine-T ([Bolton, 1989]). Following termination of the reaction (4.3 µg cysteine in 100 µl phosphate buffer) and quenching (500 µl of 0.2 mg ml^−1 KI in phosphate buffer), radiolabeled peptide was separated from unincorporated iodide on Sep-Pak C18 cartridges (Waters, Milford, MA, USA), by firstly washing with 10 ml of 200 mmol l^−1 phosphate buffer then eluting the peptide with 40% isopropanol in 500 µl fractions. Small quantities (2 µl) were then taken for counting. Specific activities of 8–16 TBq mmol^−1 were routinely obtained.
RIA conditions were as follows: iodinated AST-C 35,000 dpm per 50 µl PBS containing 0.05% BSA and 0.02% sodium azide. An antiserum raised against Manduca sexta AST-C (a generous gift from Dr N. Audsley, FERA, York) was used at 1:1000 in PBS at 50 µl per tube. Standard peptides 2–2000 fmol per 50 µl and unknowns were assayed in duplicate. Tubes were first incubated for 6 h at room temperature, without tracer, which was then added, followed by 4°C incubation overnight. […]

YOs = system: YOs; parameters: method as in Liu et al., 2021; settings: 10^−6 M; S. paramamosain; EIA measuring 20-hydroxyecdysone; ref Liu et al., 2021; cited from earlier work
AST-C receptor = settings: S. paramamosain AST-C receptor, CRE-Luc reporter, HEK293; ref Liu et al., 2021; cited from earlier work
From the text: For decapod crustaceans, the only other AST-C receptors that have been functionally de-orphaned are those from Cancer borealis, using EGFP fused to the C-terminus of the AST-C receptor and expression in Spodoptera frugiperda SF9 cells ([Dickinson et al., 2019]), and from H. americanus, using chimeric EGFP constructs in Tricoplusia ni cells.

vitellogenesis = settings: S. paramamosain; ref Liu et al., 2019; cited from earlier work
From the text: It is likely that vitellogenesis takes place during inter-molt in this species, as it does in C. maenas ([Styrishave et al., 2008]), a closely related portunid crab. Since AST-C and likely AST-CC are only ephemerally released during the completion of ecdysis in the latter species, involvement of AST-C in inhibition of vitellogenesis seems entirely improbable, and it is extremely unlikely that in vivo injection of AST-C, as reported by [Liu et al. (2019)], has any biological relevance i ...

| Substance | ED50 in AST-C RIA standard curve [1] | Effect on ecdysteroid synthesis by YOs in vitro (YOs) | ED50, receptor activation (AST-C receptor) | Effect of in vivo injection on vitellogenesis (vitellogenesis) |
| --- | --- | --- | --- | --- |
| GNGDGRLYWRCYFNAVSCF (disulfide 11-18 (inferred)) [AST-CC, C. maenas AST-C family neuropeptide; synthetic (GenScript)] | 8000 fmol per tube | – | – | – |
| pQIRYHQCYFNPISCF (disulfide) [AST-C, allatostatin-C, C. maenas AST-C family neuropeptide with C-terminal PISCF motif; synthetic (GenScript)] | 20 fmol per tube | slightly inhibit | ~6 nM | inhibits vitellogenesis |

— paper PMC11959706, “Allatostatin-C signaling in the crab Carcinus maenas is implicated in the ecdysis program” (The Journal of Experimental Biology, 2025)
